In PubChem BioAssay (NCI) one finds TGI and GI50 data, which are given here for 23 molecules.

Among the test systems are OVCAR-4 ovarian; TK-10 renal; HCC-2998 colon; RPMI-8226 leukemia; OVCAR-5 ovarian; SNB-19 CNS; HCT-15 colon; K-562 leukemia; MALME-3M melanoma; SF-539 CNS.
What all share (assay): NCI tumour cell line growth inhibition, 48 h

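Where inhibition never reached the appropriate level, the endpoint shown equals the highest concentration tested. Otherwise, values were interpolated linearly from a five-concentration, 48-hour dose response in 96-well plates. The concentration for 50% growth inhibition is given as GI50. TGI is the concentration that stops growth completely.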

For `CN(C)C(=O)C(F)(F)C(c1ccc(F)cc1)C1C(=O)N(C)C(=O)N(C)C1=O` (centres undefined), the TGI in the assay on OVCAR-4 ovarian, with TK-10 renal, in the assay on HCC-2998 colon, with RPMI-8226 leukemia, with OVCAR-5 ovarian and in the assay with SNB-19 CNS was greater than 100 µM throughout. Moreover, the TGI in the assay with HCT-15 colon is greater than 100 µM.

Turning to `COc1ccc(C2Oc3ccc(Cl)cc3C=C2[N+](=O)[O-])cc1` (centres undefined), the TGI with OVCAR-4 ovarian, in the assay on K-562 leukemia, in the assay on TK-10 renal, in the assay with MALME-3M melanoma, with RPMI-8226 leukemia and with OVCAR-5 ovarian was greater than 100 µM throughout. Also, the TGI in the assay with SNB-19 CNS and in the assay on HCT-15 colon was greater than 100 µM each time.

`Cc1ccccc1-c1nc2c(N)nc(N)nc2nc1N`: the TGI with OVCAR-4 ovarian, in the assay with K-562 leukemia, in the assay on TK-10 renal, with SF-539 CNS, with HCC-2998 colon and in the assay with RPMI-8226 leukemia was greater than 100 µM throughout. The TGI in the assay with OVCAR-5 ovarian, with SNB-19 CNS and with HCT-15 colon was greater than 100 µM in each case.

Turning to `Cc1nc2ccc(Cl)cc2c(-n2ccnc2)c1CCn1ccnc1`, the TGI was greater than 100 µM in the assay with OVCAR-4 ovarian; 89.3 µM with K-562 leukemia; greater than 100 µM in the assay on TK-10 renal; greater than 100 µM in the assay on SF-539 CNS; 97 µM in the assay with MALME-3M melanoma; greater than 100 µM in the assay on HCC-2998 colon. The TGI in the assay on OVCAR-5 ovarian, in the assay with SNB-19 CNS and in the assay with HCT-15 colon was greater than 100 µM each time.

For `COc1cc2nc(-c3ccc(Cl)cc3)cc(OCCCN3CCOCC3)c2cc1OC`, the results for the GI50 in the assay with K-562 leukemia, in the assay on SF-539 CNS and in the assay with OVCAR-5 ovarian were 2.71 µM, 2.99 µM and 1.58 µM, respectively. Further, the TGI in the assay on K-562 leukemia, in the assay with SF-539 CNS and in the assay with OVCAR-5 ovarian was greater than 100 µM throughout.

As to `COC(=O)[C@]1(C)CCC[C@@]2(C)C1CC[C@]13C=C(C(C)C)[C@H](CC21)CC3(Cl)C#N` (some centres undefined), the TGI with OVCAR-4 ovarian was greater than 100 µM; with K-562 leukemia, greater than 100 µM; in the assay with TK-10 renal it was greater than 100 µM; in the assay on SF-539 CNS, greater than 100 µM; in the assay on MALME-3M melanoma it was 89.7 µM; with HCC-2998 colon, greater than 100 µM. Moreover, the TGI in the assay on OVCAR-5 ovarian, with SNB-19 CNS and with HCT-15 colon was greater than 100 µM each time.

`CO/N=C1\CC(NC(=O)C(F)(F)F)c2ccsc21` (centres undefined): the TGI in the assay on OVCAR-4 ovarian, in the assay with K-562 leukemia, in the assay on TK-10 renal, with SF-539 CNS, with MALME-3M melanoma and in the assay with HCC-2998 colon was greater than 100 µM each time. Also, the TGI in the assay with OVCAR-5 ovarian and in the assay with HCT-15 colon was greater than 100 µM each time.

As for `COC(=O)c1ccccc1C1CN=NC12Cc1c(ccc(C)c1C)C2=O` (centres undefined), the TGI in the assay on OVCAR-4 ovarian, with K-562 leukemia, with TK-10 renal, with MALME-3M melanoma, in the assay with HCC-2998 colon and in the assay with OVCAR-5 ovarian was greater than 100 µM throughout. Besides, the TGI in the assay on SNB-19 CNS and with HCT-15 colon was greater than 100 µM throughout.

Consider `CN(O)C(=O)/C=C/c1ccc(OCc2cccc(Cl)c2)cc1`, for which the TGI with OVCAR-4 ovarian was 86.6 µM; with K-562 leukemia, greater than 100 µM; in the assay on TK-10 renal, greater than 100 µM; in the assay on SF-539 CNS, greater than 100 µM; in the assay with HCC-2998 colon, 72.7 µM; in the assay with RPMI-8226 leukemia, 96.9 µM. The TGI in the assay on OVCAR-5 ovarian is greater than 100 µM; in the assay with SNB-19 CNS, greater than 100 µM; in the assay with HCT-15 colon, 29.1 µM.

As to `CN(C)CCn1c(=O)c2ccc(NCCCN(C)CCCNc3ccc4c(=O)n(CCN(C)C)c(=O)n5c6ccc(O)cc6c(=O)c3c45)c3c(=O)c4cc(O)ccc4n(c1=O)c23`, the TGI with OVCAR-4 ovarian came to 0.177 µM; in the assay with K-562 leukemia, 0.255 µM; in the assay with TK-10 renal it was 1.63 µM; in the assay on SF-539 CNS, 1.84 µM; in the assay on MALME-3M melanoma it was 0.598 µM; in the assay on HCC-2998 colon, 0.173 µM. Further, the figures for the TGI in the assay with OVCAR-5 ovarian, in the assay on SNB-19 CNS and in the assay with HCT-15 colon were 1.15 µM, 1.54 µM and 3.41 µM, respectively.

As to `CN(C)c1ccc(/C=C(\NC(=O)c2ccccc2)C(=O)NC(CC(=O)O)C(=O)O)cc1` (centres undefined), the TGI in the assay on OVCAR-4 ovarian was greater than 100 µM; with K-562 leukemia, 33.3 µM; in the assay on TK-10 renal, greater than 100 µM; in the assay on SF-539 CNS it was greater than 100 µM; in the assay on HCC-2998 colon it was greater than 100 µM; in the assay with RPMI-8226 leukemia, greater than 100 µM. In addition, the TGI in the assay on OVCAR-5 ovarian, in the assay with SNB-19 CNS and in the assay with HCT-15 colon was greater than 100 µM throughout.

Regarding `O=C(CCc1cc(O)cc(O)c1)NCCc1cc(OCc2ccccc2)cc(OCc2ccccc2)c1`, the TGI is 29.7 µM with K-562 leukemia; 46.2 µM in the assay on TK-10 renal; 44.6 µM with SF-539 CNS; 35 µM with HCC-2998 colon; 54 µM in the assay with RPMI-8226 leukemia; 39.5 µM with OVCAR-5 ovarian. Further, the TGI is 7.17 µM in the assay on SNB-19 CNS and 29.8 µM in the assay with HCT-15 colon.

Turning to `O=C1C=CC2(O[C@H](c3ccccc3)[C@@H](c3ccccc3)O2)[C@H](Sc2ccccc2O)C1`, the TGI in the assay on OVCAR-4 ovarian amounted to 2.43 µM; with K-562 leukemia, 78.2 µM; in the assay on TK-10 renal, 0.966 µM; in the assay on SF-539 CNS, 1.7 µM; with MALME-3M melanoma it was 0.907 µM; with HCC-2998 colon, 1.63 µM. The TGI in the assay on OVCAR-5 ovarian amounted to 4.49 µM; in the assay on SNB-19 CNS, 3.74 µM; in the assay with HCT-15 colon, 0.507 µM.

In the case of `O=C(c1ccco1)N(C(=O)N1CCCCC1)c1ccccc1`, the TGI in the assay with K-562 leukemia, in the assay with TK-10 renal, with SF-539 CNS, in the assay with MALME-3M melanoma, in the assay with RPMI-8226 leukemia and in the assay on OVCAR-5 ovarian was greater than 100 µM throughout. The TGI with SNB-19 CNS and in the assay with HCT-15 colon was greater than 100 µM throughout.

`COC(=O)/C=C(\C)CC/C=C(\C)CCC1OC1(C)C` (centres undefined): the TGI with OVCAR-4 ovarian is 22.2 µM; with K-562 leukemia, 22 µM; in the assay on TK-10 renal, 22.7 µM; in the assay with SF-539 CNS, 24.1 µM; in the assay with MALME-3M melanoma, 29.1 µM; in the assay on HCC-2998 colon, 22.8 µM. Also, the TGI was 25.3 µM with OVCAR-5 ovarian, greater than 75 µM in the assay on SNB-19 CNS and 21.9 µM in the assay on HCT-15 colon.

In the case of `CCCCCCCCCCCCCCCCCCOc1ccccc1CC(=O)NCC[N+]1(C)CCOCC1`, the GI50 with OVCAR-4 ovarian was 6.42 µM; in the assay with TK-10 renal, 1.9 µM; in the assay with SF-539 CNS it was 3.35 µM; in the assay on MALME-3M melanoma it was 4.48 µM; with HCC-2998 colon, 2.08 µM; in the assay on OVCAR-5 ovarian, 1.89 µM. The GI50 with HCT-15 colon is 17.1 µM. Moreover, the TGI with OVCAR-4 ovarian was 23.3 µM; with TK-10 renal, 5.9 µM; in the assay with SF-539 CNS, 12.8 µM; in the assay with MALME-3M melanoma, greater than 100 µM; with HCC-2998 colon it was 7.09 µM; with OVCAR-5 ovarian, 4.85 µM. This molecule also showed a TGI in the assay on HCT-15 colon of 66.5 µM.

In the case of `CC1CC(N2CCOCC2)=Nc2ccccc2N1C` (centres undefined), the TGI in the assay with OVCAR-4 ovarian, in the assay on K-562 leukemia, with TK-10 renal, in the assay with SF-539 CNS, with MALME-3M melanoma and in the assay on RPMI-8226 leukemia was greater than 100 µM each time. Besides, the TGI in the assay with OVCAR-5 ovarian, in the assay with SNB-19 CNS and in the assay with HCT-15 colon was greater than 100 µM each time.

In the case of `COc1ccc2c(c1)c1c(n2CCN2CCCCC2)-c2cccc(OC)c2CC1`, the TGI in the assay on OVCAR-4 ovarian was greater than 100 µM; with K-562 leukemia it was 31.6 µM; in the assay with TK-10 renal it was 32.8 µM; with HCC-2998 colon it was 36.4 µM; in the assay with RPMI-8226 leukemia, 35.5 µM; in the assay with OVCAR-5 ovarian, 32.8 µM. Further, the TGI in the assay on SNB-19 CNS came to 29.7 µM; with HCT-15 colon, 70.1 µM.

On to `CC(=O)NNc1nc(C)c(C(=O)NNC(=O)C(=O)Nc2ccc([N+](=O)[O-])cc2[N+](=O)[O-])s1`, for which the TGI in the assay with OVCAR-4 ovarian, in the assay on K-562 leukemia, with TK-10 renal, in the assay with SF-539 CNS, in the assay on HCC-2998 colon and in the assay with RPMI-8226 leukemia was greater than 100 µM throughout. The TGI in the assay on OVCAR-5 ovarian, in the assay on SNB-19 CNS and in the assay with HCT-15 colon was greater than 100 µM in each case.

With `CC(C)C(Br)CCC1=CCC(Br)(Br)C1` (centres undefined), the TGI with OVCAR-4 ovarian is 24.2 µM; in the assay on K-562 leukemia, greater than 100 µM; in the assay on TK-10 renal it was 31.4 µM; with SF-539 CNS, 33.7 µM; with MALME-3M melanoma, 27.9 µM; in the assay on HCC-2998 colon, 28.1 µM. Further, the TGI with OVCAR-5 ovarian is 30.5 µM; with SNB-19 CNS it was 32 µM.

With `Cn1nc(-c2ccc(S(=O)(=O)/N=C(\NN)Nc3ccc(Cl)cc3)s2)cc1C(F)(F)F`, the TGI with OVCAR-4 ovarian was 29.9 µM; in the assay with K-562 leukemia, 35.4 µM; in the assay with TK-10 renal it was 35.6 µM; in the assay with SF-539 CNS it was 30 µM; in the assay on RPMI-8226 leukemia, 56 µM; with OVCAR-5 ovarian, 30.1 µM. Moreover, the TGI with SNB-19 CNS worked out at 30.2 µM; in the assay with HCT-15 colon it was 47.5 µM.

With `O=C(/C=C/c1ccc(O)c(O)c1)OCCc1ccc2ccccc2c1`, the TGI in the assay on TK-10 renal turned out to be 20.4 µM; in the assay with SF-539 CNS it was 19.1 µM; in the assay with MALME-3M melanoma, 23.1 µM; in the assay on HCC-2998 colon, 30.9 µM; in the assay with OVCAR-5 ovarian, 29.7 µM; in the assay with SNB-19 CNS, 25.9 µM. For the same molecule, the TGI in the assay with HCT-15 colon is 10.2 µM.

As to `C[C@]12CCC3[C@@H](CCC45OC4C(=O)CC[C@]35C)C1Cc1cnn(-c3ccc(F)cc3)c1N2` (some centres undefined), the TGI was 66.8 µM with K-562 leukemia; greater than 100 µM with TK-10 renal; greater than 100 µM with MALME-3M melanoma; 54.7 µM in the assay on RPMI-8226 leukemia; 92.6 µM with SNB-19 CNS; 33.9 µM in the assay with HCT-15 colon.
